Results: US8741262B2, “Targeted radiotherapy” (Katholieke Universiteit Leuven, K.U. Leuven R&D, priority 2007, dated 2014)

System: liver radiation-induced fibrosarcoma (RIF-1), RFA-induced necrosis
Test: Hypericin distribution in liver RIF-1 tumor in mice after radiofrequency ablation, fluoromacroscopy and fluorescence microscopy
Assay type: in vivo
Conditions: 5 mg/kg iv 24 h after RFA, 3 d after injection
Protocol: The rectangular frame in A and B indicates where micrographs (C and D) were approximately focused. […] Thus, the prolonged retention of hypericin in necrosis matches well the radiation half life of iodine-131 (8 d) or yttrium-90 (64 h), which offers an ideal condition for the present adjuvant anti-cancer radiotherapy with combined use of a small molecule therapeutically labeled NACCs featuring multi-millimeter irradiation penetration (max. range of beta particles in tissue is 2.4 mm for iodine-131 and 12 mm for yttrium-90).

**Q.** What does the source list for Cc1cc(O)c2c(=O)c3c(O)cc(O)c4c5c(O)cc(O)c6c(=O)c7c(O)cc(C)c8c1c2c(c34)c(c78)c65 [hypericin]?
**A.** Fluorescence microscopy of necrotic tumor regions: can still be detected in RFA-induced necrotic tumor regions (NT); Tissue distribution by UV light fluoromacroscopy: almost completely cleared from viable liver (VL) and viable tumor (VT), but is retained only in necrotic tumor (NT) and necrotic liver (NL)
